Reference: PubChem BioAssay (NCI)
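48-hour exposure; five concentrations; linearly interpolated endpoints. Abbreviation: GI50, concentration required for 50% inhibition of growth. TGI is the concentration that stops growth completely.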

What was measured:
Assay in all cases: NCI-60 cell line screen, 48 h
SK-MEL-5 melanoma = tested on: SK-MEL-5 melanoma
RPMI-8226 leukemia = tested on: RPMI-8226 leukemia
OVCAR-8 ovarian = tested on: OVCAR-8 ovarian
SNB-19 CNS = tested on: SNB-19 CNS
TK-10 renal = tested on: TK-10 renal
K-562 leukemia = tested on: K-562 leukemia
SK-OV-3 ovarian = tested on: SK-OV-3 ovarian
UACC-62 melanoma = tested on: UACC-62 melanoma
HT29 colon = tested on: HT29 colon
SR leukemia = tested on: SR leukemia
NCI-H460 lung = tested on: NCI-H460 lung
OVCAR-5 ovarian = tested on: OVCAR-5 ovarian
SK-MEL-2 melanoma = tested on: SK-MEL-2 melanoma
M14 melanoma = tested on: M14 melanoma
NCI-H226 lung = tested on: NCI-H226 lung
ACHN renal = tested on: ACHN renal
SF-295 CNS = tested on: SF-295 CNS
HCT-15 colon = tested on: HCT-15 colon
EKVX NSCLC = tested on: EKVX NSCLC
BT-549 breast = tested on: BT-549 breast
NCI-H23 lung = tested on: NCI-H23 lung
NCI-H522 lung = tested on: NCI-H522 lung
U251 CNS = tested on: U251 CNS
CAKI-1 renal = tested on: CAKI-1 renal
DU-145 prostate = tested on: DU-145 prostate
LOX IMVI melanoma = tested on: LOX IMVI melanoma
HS 578T breast = tested on: HS 578T breast
IGROV1 ovarian = tested on: IGROV1 ovarian
MDA-MB-231 breast = tested on: MDA-MB-231 breast
OVCAR-3 ovarian = tested on: OVCAR-3 ovarian
RXF 393 renal = tested on: RXF 393 renal
HCC-2998 colon = tested on: HCC-2998 colon
MDA-MB-435 = tested on: MDA-MB-435
OVCAR-4 ovarian = tested on: OVCAR-4 ovarian
MCF7 breast = tested on: MCF7 breast
CCRF-CEM leukemia = tested on: CCRF-CEM leukemia
KM12 colon = tested on: KM12 colon
SNB-75 CNS = tested on: SNB-75 CNS
HOP-92 NSCLC = tested on: HOP-92 NSCLC
A498 renal = tested on: A498 renal
786-0 renal = tested on: 786-0 renal
HOP-62 NSCLC = tested on: HOP-62 NSCLC
MALME-3M melanoma = tested on: MALME-3M melanoma
MOLT-4 leukemia = tested on: MOLT-4 leukemia
PC-3 prostate = tested on: PC-3 prostate
NCI/ADR-RES ovarian = tested on: NCI/ADR-RES ovarian
T-47D breast = tested on: T-47D breast
SF-539 CNS = tested on: SF-539 CNS
UO-31 renal = tested on: UO-31 renal
SW-620 colon = tested on: SW-620 colon
UACC-257 melanoma = tested on: UACC-257 melanoma
SK-MEL-28 melanoma = tested on: SK-MEL-28 melanoma
COLO 205 colon = tested on: COLO 205 colon
SN12C renal = tested on: SN12C renal
MDA-MB-468 breast = tested on: MDA-MB-468 breast
HCT-116 colon = tested on: HCT-116 colon
SF-268 CNS = tested on: SF-268 CNS
A549 NSCLC = tested on: A549 NSCLC
HL-60(TB) leukemia = tested on: HL-60(TB) leukemia

Structure (SMILES): O=C(N/N=C/c1ccc(Cl)cc1)c1ccc(OCc2nc3ccc(Cl)cc3[nH]2)cc1
- GI50 (SK-MEL-5 melanoma): 15.1 µM
- TGI (SK-MEL-5 melanoma): 30.1 µM
- GI50 (RPMI-8226 leukemia): 16.6 µM
- TGI (RPMI-8226 leukemia): > 100 µM
- GI50 (OVCAR-8 ovarian): 18.1 µM
- TGI (OVCAR-8 ovarian): 55.5 µM
- GI50 (SNB-19 CNS): 15.4 µM
- TGI (SNB-19 CNS): 29.5 µM
- GI50 (TK-10 renal): 19.5 µM
- TGI (TK-10 renal): 38.3 µM
- GI50 (K-562 leukemia): 3.81 µM
- TGI (K-562 leukemia): 21.3 µM
- GI50 (SK-OV-3 ovarian): 16 µM
- TGI (SK-OV-3 ovarian): 32.8 µM
- GI50 (UACC-62 melanoma): 12.6 µM
- TGI (UACC-62 melanoma): 25.4 µM
- GI50 (HT29 colon): 15.2 µM
- TGI (HT29 colon): 45.5 µM
- GI50 (SR leukemia): 0.62 µM
- TGI (SR leukemia): > 100 µM
- GI50 (NCI-H460 lung): 4.68 µM
- TGI (NCI-H460 lung): 16.8 µM
- GI50 (OVCAR-5 ovarian): 14.5 µM
- TGI (OVCAR-5 ovarian): 32.7 µM
- GI50 (SK-MEL-2 melanoma): 18.6 µM
- TGI (SK-MEL-2 melanoma): 40 µM
- GI50 (M14 melanoma): 10.2 µM
- TGI (M14 melanoma): 25.3 µM
- GI50 (NCI-H226 lung): 14.1 µM
- TGI (NCI-H226 lung): 30.2 µM
- GI50 (ACHN renal): 14.3 µM
- TGI (ACHN renal): 27.8 µM
- GI50 (SF-295 CNS): 12 µM
- TGI (SF-295 CNS): 24.4 µM
- GI50 (HCT-15 colon): 8.27 µM
- TGI (HCT-15 colon): 21.9 µM
- GI50 (EKVX NSCLC): 14.9 µM
- TGI (EKVX NSCLC): 28.9 µM
- GI50 (BT-549 breast): 19.5 µM
- TGI (BT-549 breast): 41.6 µM
- GI50 (NCI-H23 lung): 6.59 µM
- TGI (NCI-H23 lung): 19.7 µM
- GI50 (NCI-H522 lung): 19.7 µM
- TGI (NCI-H522 lung): 41.6 µM
- GI50 (U251 CNS): 14.2 µM
- TGI (U251 CNS): 33.1 µM
- GI50 (CAKI-1 renal): 17 µM
- TGI (CAKI-1 renal): 34 µM
- GI50 (DU-145 prostate): 10.8 µM
- TGI (DU-145 prostate): 25.3 µM
- GI50 (LOX IMVI melanoma): 6.22 µM
- TGI (LOX IMVI melanoma): 19.1 µM
- GI50 (HS 578T breast): 11.2 µM
- TGI (HS 578T breast): 50.9 µM
- GI50 (IGROV1 ovarian): 11.6 µM
- TGI (IGROV1 ovarian): 24.2 µM
- GI50 (MDA-MB-231 breast): 10.8 µM
- TGI (MDA-MB-231 breast): 23.2 µM
- GI50 (OVCAR-3 ovarian): 18 µM
- TGI (OVCAR-3 ovarian): 42.3 µM
- GI50 (RXF 393 renal): 10.5 µM
- TGI (RXF 393 renal): 24.4 µM
- GI50 (HCC-2998 colon): 11.5 µM
- TGI (HCC-2998 colon): 25.8 µM
- GI50 (MDA-MB-435): 14.6 µM
- TGI (MDA-MB-435): 31 µM
- GI50 (OVCAR-4 ovarian): 15.5 µM
- TGI (OVCAR-4 ovarian): 31.4 µM
- GI50 (MCF7 breast): 10 µM
- TGI (MCF7 breast): 23.2 µM
- GI50 (CCRF-CEM leukemia): 6.78 µM
- TGI (CCRF-CEM leukemia): 37.1 µM
- GI50 (KM12 colon): 20.5 µM
- TGI (KM12 colon): 66 µM
- GI50 (SNB-75 CNS): 5.23 µM
- TGI (SNB-75 CNS): 19.8 µM
- GI50 (HOP-92 NSCLC): 13.4 µM
- TGI (HOP-92 NSCLC): 30.8 µM
- GI50 (A498 renal): 21.4 µM
- TGI (A498 renal): 38.4 µM
- GI50 (786-0 renal): 4.34 µM
- TGI (786-0 renal): 16.9 µM
- GI50 (HOP-62 NSCLC): 15.7 µM
- TGI (HOP-62 NSCLC): 31.6 µM
- GI50 (MALME-3M melanoma): 11.7 µM
- TGI (MALME-3M melanoma): 24.5 µM
- GI50 (MOLT-4 leukemia): 7.51 µM
- TGI (MOLT-4 leukemia): 27.3 µM
- GI50 (PC-3 prostate): 7.48 µM
- TGI (PC-3 prostate): 24.9 µM
- GI50 (NCI/ADR-RES ovarian): 15.9 µM
- TGI (NCI/ADR-RES ovarian): 68 µM
- GI50 (T-47D breast): 19.3 µM
- TGI (T-47D breast): 42.9 µM
- GI50 (SF-539 CNS): 16.6 µM
- TGI (SF-539 CNS): 30.6 µM
- GI50 (UO-31 renal): 13.1 µM
- TGI (UO-31 renal): 26.3 µM
- GI50 (SW-620 colon): 6.79 µM
- TGI (SW-620 colon): 23 µM
- GI50 (UACC-257 melanoma): 21.1 µM
- TGI (UACC-257 melanoma): 46.6 µM
- GI50 (SK-MEL-28 melanoma): 12.5 µM
- TGI (SK-MEL-28 melanoma): 25.3 µM
- GI50 (COLO 205 colon): 15.3 µM
- TGI (COLO 205 colon): 32.1 µM
- GI50 (SN12C renal): 12.7 µM
- TGI (SN12C renal): 25.8 µM
- GI50 (MDA-MB-468 breast): 11.6 µM
- TGI (MDA-MB-468 breast): 24.4 µM
- GI50 (HCT-116 colon): 4.46 µM
- TGI (HCT-116 colon): 19.2 µM
- GI50 (SF-268 CNS): 21.2 µM
- TGI (SF-268 CNS): 53.5 µM
- GI50 (A549 NSCLC): 12 µM
- TGI (A549 NSCLC): 34.2 µM
- GI50 (HL-60(TB) leukemia): 26.4 µM
- TGI (HL-60(TB) leukemia): > 100 µM
